The record followed here is article PMC6270420, “Antibacterial Activity of Salicylanilide 4-(Trifluoromethyl)benzoates” (Molecules, 2013).

Values after ≈ are worked out from the molar mass of the structure shown. Like-named read-outs stand apart in the source and are kept apart here.

In general, IC50 refers to the concentration needed to halve the response being measured.

The target in experiment [1] is T1, mycobacterial isocitrate lyase (ICL1, Rv0467) (Mycobacterium tuberculosis, UniProt P9WKK7).
T1 construct: His tag (from pET-28b(+)); made in house; host or cells: E. coli BL21(DE3), pET-28b(+) plasmid
T1 sequence (P9WKK7 1-428): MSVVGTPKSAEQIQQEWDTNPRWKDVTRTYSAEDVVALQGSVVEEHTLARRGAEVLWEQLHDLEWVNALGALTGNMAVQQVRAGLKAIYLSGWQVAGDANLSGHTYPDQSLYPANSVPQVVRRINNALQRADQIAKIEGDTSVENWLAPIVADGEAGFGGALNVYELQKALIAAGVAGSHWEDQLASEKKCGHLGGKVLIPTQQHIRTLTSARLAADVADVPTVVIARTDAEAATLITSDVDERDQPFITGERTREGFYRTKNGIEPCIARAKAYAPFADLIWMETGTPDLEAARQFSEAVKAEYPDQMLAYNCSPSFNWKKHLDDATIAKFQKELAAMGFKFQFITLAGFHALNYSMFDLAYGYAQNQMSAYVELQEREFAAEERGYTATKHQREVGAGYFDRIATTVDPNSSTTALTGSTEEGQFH
Description: Isocitrate lyase inhibition assay (ICL1). It is filed as biochemical, Mycobacterium tuberculosis H37Rv. The note with it: 10 μmol/L; read-out: % ICL inhibition at 10 μmol/L (± standard deviation).

The next experiment concerns Mtb. 53/2009. Description: microbe, parasite or virus in culture. It is filed as cell-based. The note with it: Mycobacterium tuberculosis, read-out: MIC Mtb. 53/2009.
Another experiment relates to Mtb. 7357/1988. Description: microbe, parasite or virus in culture. It counts as cell-based. The note with it: Mycobacterium tuberculosis, read-out: MIC Mtb. 7357/1988.
For the next experiment, the system named is Mtb. 234/2005. Description: microbe, parasite or virus in culture. It is filed as cell-based. The note with it: Mycobacterium tuberculosis, read-out: MIC Mtb. 234/2005.
The test system of a further experiment is Mtb. Praha 131 (XDR-TB). Description: microbe, parasite or virus in culture. It counts as cell-based. Conditions: Mycobacterium tuberculosis, read-out: MIC Mtb. Praha 131 (XDR-TB).
Experiment [2] concerns M. kansasii 6509/96 (clinically isolated strain). Description: Antimycobacterial MIC micromethod. It counts as cell-based. The note with it: Mycobacterium kansasii, read-out: MIC M. kansasii 6509/96.
A further experiment has as its system Mtb. 9449/2006. Description: microbe, parasite or virus in culture. Conditions: Mycobacterium tuberculosis, read-out: MIC Mtb. 9449/2006. It is filed as cell-based.
A further experiment has as its system HepG2 cells. Description: Cytotoxicity evaluation (CellTiter 96 MTS). It counts as cell-based, human. The note with it: Homo sapiens, HepG2, 24 h, read-out: IC50 HepG2. The gist of the method:
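Human HepG2 cells (passages 21–24) seeded 1 × 10^4/well, treated next day with 0.01–20 µM compound (4-(trifluoromethyl)benzoic acid 10–4,000 µM), triplicates, 24 h at 37 °C. MTS reduction read at 490 nm after 2 h; IC50 = concentration cutting viability to 50% of control.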

Experiment [3] relates to Mycobacterium avium 330/88. Description: Antimycobacterial MIC micromethod. It counts as cell-based.
The test system of experiment [4] is Mycobacterium kansasii 235/80. Description: Antimycobacterial MIC micromethod. It counts as cell-based. Conditions: read-out: MIC M. kansasii 235/80.
The subject of experiment [5] is Mycobacterium tuberculosis 331/88 (H37Rv). Description: Antimycobacterial MIC micromethod, Šula's medium. It is filed as cell-based.
Setting [6] is: 336 h, 14 d, read-out: MIC Mtb. 331/88.
[7] abbreviates: 504 h, 21 d, read-out: MIC Mtb. 331/88.
Setting [8] is: time not stated, read-out: MIC against M. tuberculosis.

As for `O=C(Oc1cc(Cl)ccc1C(=O)Nc1ccc(Br)cc1)c1ccc(C(F)(F)F)cc1` [1j], in [1], the inhibition at 10 µM was 14 ± 4%. In addition, the MIC with Mtb. 53/2009 (336 h), with Mtb. 53/2009 (504 h), with Mtb. 7357/1988 (336 h), in the experiment on Mtb. 7357/1988 (504 h), in the experiment on Mtb. 234/2005 (336 h) and in the experiment with Mtb. 234/2005 (504 h) was 2 µM (≈ 0.997 µg/mL) throughout. Moreover, the MIC in the experiment on Mtb. Praha 131 (XDR-TB) (336 h) was determined as 1 µM (≈ 0.499 µg/mL); with Mtb. Praha 131 (XDR-TB) (504 h) it was 2 µM (≈ 0.997 µg/mL); in experiment [2] (168 h, 7 d) it was 2 µM (≈ 0.997 µg/mL); in experiment [2] (336 h, 14 d) it was 4 µM (≈ 1.99 µg/mL); in [2] (504 h, 21 d) it was 4 µM (≈ 1.99 µg/mL); in the experiment on Mtb. 9449/2006 (336 h), 2 µM (≈ 0.997 µg/mL). The MIC in the experiment with Mtb. 9449/2006 (504 h) stood at 2 µM (≈ 0.997 µg/mL); in experiment [3] (330/88, 336 h, 14 d), 8 µM (≈ 3.99 µg/mL); in [3] (330/88, 504 h, 21 d), 8 µM (≈ 3.99 µg/mL); in [4] (235/80, 168 h, 7 d), 1 µM (≈ 0.499 µg/mL); in experiment [4] (235/80, 336 h, 14 d), 4 µM (≈ 1.99 µg/mL); in experiment [4] (235/80, 504 h, 21 d), 4 µM (≈ 1.99 µg/mL). The MIC worked out at 2 µM (≈ 0.997 µg/mL) in [5] (setting [6]) and 4 µM (≈ 1.99 µg/mL) in [5] (setting [7]). The half-inhibitory concentration (IC50) in the experiment with HepG2 cells was determined as 4.82 µM.
With `O=C(Oc1ccc(Cl)cc1C(=O)Nc1ccc(Cl)c(Cl)c1)c1ccc(C(F)(F)F)cc1` [1e], in experiment [1], the inhibition at 10 µM worked out at 18 ± 1.5%. The MIC is 2 µM (≈ 0.977 µg/mL) with Mtb. 53/2009 (336 h); 4 µM (≈ 1.95 µg/mL) with Mtb. 53/2009 (504 h); 1 µM (≈ 0.489 µg/mL) in the experiment on Mtb. 7357/1988 (336 h); 2 µM (≈ 0.977 µg/mL) in the experiment on Mtb. 7357/1988 (504 h); 1 µM (≈ 0.489 µg/mL) with Mtb. 234/2005 (336 h); 2 µM (≈ 0.977 µg/mL) with Mtb. 234/2005 (504 h). The MIC with Mtb. Praha 131 (XDR-TB) (336 h) is 2 µM (≈ 0.977 µg/mL); in the experiment on Mtb. Praha 131 (XDR-TB) (504 h), 2 µM (≈ 0.977 µg/mL); in experiment [2] (168 h, 7 d) it was 1 µM (≈ 0.489 µg/mL); in experiment [2] (336 h, 14 d) it was 2 µM (≈ 0.977 µg/mL); in experiment [2] (504 h, 21 d) it was 4 µM (≈ 1.95 µg/mL); in the experiment with Mtb. 9449/2006 (336 h) it was 2 µM (≈ 0.977 µg/mL). For the same molecule, the MIC was determined as 2 µM (≈ 0.977 µg/mL) with Mtb. 9449/2006 (504 h); 4 µM (≈ 1.95 µg/mL) in experiment [3] (330/88, 336 h, 14 d); 4 µM (≈ 1.95 µg/mL) in experiment [3] (330/88, 504 h, 21 d); 1 µM (≈ 0.489 µg/mL) in [4] (235/80, 168 h, 7 d); 2 µM (≈ 0.977 µg/mL) in experiment [4] (235/80, 336 h, 14 d); 4 µM (≈ 1.95 µg/mL) in [4] (235/80, 504 h, 21 d). In addition, the MIC in experiment [5] (setting [6]), in [5] (setting [7]) and in experiment [5] (setting [8]) was 1 µM (≈ 0.489 µg/mL) in each case. For the same molecule, in the experiment on HepG2 cells, the IC50 amounted to 3.13 µM.
`O=C(Oc1ccc(Cl)cc1C(=O)Nc1ccc(C(F)(F)F)cc1)c1ccc(C(F)(F)F)cc1` [1o, 4-chloro-2-[4-(trifluoromethyl)phenylcarbamoyl]phenyl 4-(trifluoromethyl)benzoate]: the inhibition at 10 µM in experiment [1] was determined as 13 ± 1.2%. Moreover, the MIC in the experiment with Mtb. 53/2009 (336 h) came to 1 µM (≈ 0.488 µg/mL); in the experiment on Mtb. 53/2009 (504 h) it was 1 µM (≈ 0.488 µg/mL); in the experiment on Mtb. 7357/1988 (336 h), 0.5 µM (≈ 0.244 µg/mL); with Mtb. 7357/1988 (504 h) it was 1 µM (≈ 0.488 µg/mL); in the experiment with Mtb. 234/2005 (336 h), 0.5 µM (≈ 0.244 µg/mL); in the experiment with Mtb. 234/2005 (504 h), 1 µM (≈ 0.488 µg/mL). Moreover, the MIC came to 0.5 µM (≈ 0.244 µg/mL) with Mtb. Praha 131 (XDR-TB) (336 h); 1 µM (≈ 0.488 µg/mL) in the experiment on Mtb. Praha 131 (XDR-TB) (504 h); 1 µM (≈ 0.488 µg/mL) in experiment [2] (168 h, 7 d); 2 µM (≈ 0.976 µg/mL) in [2] (336 h, 14 d); 2 µM (≈ 0.976 µg/mL) in experiment [2] (504 h, 21 d); 1 µM (≈ 0.488 µg/mL) with Mtb. 9449/2006 (336 h). In addition, the MIC in the experiment on Mtb. 9449/2006 (504 h) was determined as 1 µM (≈ 0.488 µg/mL); in [3] (330/88, 336 h, 14 d), 1 µM (≈ 0.488 µg/mL); in [3] (330/88, 504 h, 21 d), 4 µM (≈ 1.95 µg/mL); in experiment [4] (235/80, 168 h, 7 d), 1 µM (≈ 0.488 µg/mL); in [4] (235/80, 336 h, 14 d), 2 µM (≈ 0.976 µg/mL); in experiment [4] (235/80, 504 h, 21 d) it was 2 µM (≈ 0.976 µg/mL). The MIC in experiment [5] (setting [6]), in [5] (setting [7]) and in [5] (setting [8]) was 1 µM (≈ 0.488 µg/mL) in each case. For the same molecule, in the experiment with HepG2 cells, the half-inhibitory concentration (IC50) was 1.33 µM.
